Results as given in paper PMC11859264, “Discovery of a Novel Multitarget Analgesic Through an In Vivo-Guided Approach” (Pharmaceuticals, 2025).

Key:
[1] = molecular target: CYP2C19 (Homo sapiens, UniProt P33261); experiment: in vitro; settings: microsomes, pH 7.4, CYP2C19 % of inhibition
[2] = molecular target: T1, Adrenergic α2A (Homo sapiens, UniProt P08913); experiment: Radioligand binding, [3H] Rauwolscine, Eurofins
T1 sequence (P08913 1-465): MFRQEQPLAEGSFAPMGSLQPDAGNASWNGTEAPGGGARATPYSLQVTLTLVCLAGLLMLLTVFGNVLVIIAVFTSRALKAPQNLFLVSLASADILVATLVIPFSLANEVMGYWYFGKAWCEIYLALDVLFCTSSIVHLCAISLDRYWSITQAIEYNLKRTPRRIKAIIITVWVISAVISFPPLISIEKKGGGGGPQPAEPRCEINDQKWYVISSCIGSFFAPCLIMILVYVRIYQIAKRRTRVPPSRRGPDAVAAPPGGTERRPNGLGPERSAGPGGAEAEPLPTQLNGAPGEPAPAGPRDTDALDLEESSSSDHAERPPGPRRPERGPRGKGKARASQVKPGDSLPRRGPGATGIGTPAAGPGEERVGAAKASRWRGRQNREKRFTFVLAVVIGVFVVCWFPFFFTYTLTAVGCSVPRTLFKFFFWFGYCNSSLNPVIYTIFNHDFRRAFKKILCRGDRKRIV

[3] = molecular target: T2, Transporter, Dopamine (DAT) (Homo sapiens, UniProt Q01959); experiment: Radioligand binding, [125I] RTI-55, Eurofins
T2 construct: host or cells: CHO-S cells
T2 sequence (Q01959 whole entry): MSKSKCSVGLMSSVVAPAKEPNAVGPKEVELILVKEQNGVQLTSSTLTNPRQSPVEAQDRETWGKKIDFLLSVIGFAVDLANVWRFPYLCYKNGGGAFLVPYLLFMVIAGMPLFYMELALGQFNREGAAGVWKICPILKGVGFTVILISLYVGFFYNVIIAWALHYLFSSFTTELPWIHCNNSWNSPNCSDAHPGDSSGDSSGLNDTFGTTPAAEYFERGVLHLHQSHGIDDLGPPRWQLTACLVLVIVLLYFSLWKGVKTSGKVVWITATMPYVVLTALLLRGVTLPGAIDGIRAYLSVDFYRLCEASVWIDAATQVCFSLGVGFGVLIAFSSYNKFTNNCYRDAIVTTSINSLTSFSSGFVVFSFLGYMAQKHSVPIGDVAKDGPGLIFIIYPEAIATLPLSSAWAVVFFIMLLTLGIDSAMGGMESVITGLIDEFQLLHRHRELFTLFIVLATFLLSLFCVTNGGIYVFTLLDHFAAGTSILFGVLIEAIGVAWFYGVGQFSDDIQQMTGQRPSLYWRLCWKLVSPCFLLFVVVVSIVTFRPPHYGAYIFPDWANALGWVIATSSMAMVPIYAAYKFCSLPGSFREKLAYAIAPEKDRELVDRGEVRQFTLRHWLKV

Chain of CYP2C19 (P33261 whole entry): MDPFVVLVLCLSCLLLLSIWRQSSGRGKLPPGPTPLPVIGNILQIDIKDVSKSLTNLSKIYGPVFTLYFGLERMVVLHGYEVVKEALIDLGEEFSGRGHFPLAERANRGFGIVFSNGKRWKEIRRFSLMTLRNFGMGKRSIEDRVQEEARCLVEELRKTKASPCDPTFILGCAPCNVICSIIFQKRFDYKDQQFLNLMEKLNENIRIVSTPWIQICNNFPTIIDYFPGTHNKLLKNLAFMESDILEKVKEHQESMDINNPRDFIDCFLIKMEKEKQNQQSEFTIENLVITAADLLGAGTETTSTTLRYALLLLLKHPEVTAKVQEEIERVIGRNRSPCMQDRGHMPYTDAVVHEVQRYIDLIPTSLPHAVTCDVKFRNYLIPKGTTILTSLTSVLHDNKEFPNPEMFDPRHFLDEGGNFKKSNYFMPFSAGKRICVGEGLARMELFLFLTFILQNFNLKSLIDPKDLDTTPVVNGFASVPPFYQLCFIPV

With `N#Cc1ccc2[nH]cc(C(=O)NCCN3CCN(c4ccc5ccccc5n4)CC3)c2c1` [Compound 29, 5-Cyano-N-(2-(4-(quinolin-2-yl)piperazin-1-yl)ethyl)-1H-indole-3-carboxamide] as the compound, how does the inhibition at 15 min, 10 µM [1] read?
The inhibition at 15 min, 10 µM was less than 50%.

What about the “nH (Hill coefficient)” value ([2]; Adrenergic α2A) of the same compound?
The value was 1.02.

What about the Ki ([2]; Adrenergic α2A, Cheng and Prusoff) of the same compound?
Its Ki is 4110 nM.

And the IC50 ([2]; Adrenergic α2A, human recombinant CHO-Ki cells)?
The IC50 was 8220 nM.

What about the “times the activity of reference compound yohimbine” value ([2]; ratio of Ki values) of the same compound?
Its value is 0.25.

And the “nH (Hill coefficient)” value ([3]; DAT)?
Its value is 0.88.

And the Ki ([3]; DAT, Cheng and Prusoff)?
The Ki was 46 nM.

And the IC50 ([3]; DAT, human recombinant CHO-S cells)?
The IC50 was 57 nM.

What about the “times more potent at DAT compared to vanoxerine” value ([3]; ratio of Ki values) of the same compound?
Its value is 19.
